Assay results as given in US8178704B2, “Inositol-phosphate derivatives and method of detecting inositol-1-phosphate” (CIS Bio International, priority 2004, dated 2012).
Entries after “also recorded” stand apart in the source; their conditions may differ.

Key:
mGlu1 receptor = molecular target: T1, mGlu1 receptor (Homo sapiens, UniProt Q13255); assay: IP1 assay (TR-FRET) on HEK-293 cells transiently expressing the mGlu1 receptor, effect of a positive allosteric modulator; format: cell-based; details: Ro 01-6128 100 nM to 3 mM, 30 min; FIGS. 15A, 15B
T1 construct: expressed in transfected cells; host or cells: HEK-293 cells, transient, electroporation
T1 sequence (Q13255 19-1194): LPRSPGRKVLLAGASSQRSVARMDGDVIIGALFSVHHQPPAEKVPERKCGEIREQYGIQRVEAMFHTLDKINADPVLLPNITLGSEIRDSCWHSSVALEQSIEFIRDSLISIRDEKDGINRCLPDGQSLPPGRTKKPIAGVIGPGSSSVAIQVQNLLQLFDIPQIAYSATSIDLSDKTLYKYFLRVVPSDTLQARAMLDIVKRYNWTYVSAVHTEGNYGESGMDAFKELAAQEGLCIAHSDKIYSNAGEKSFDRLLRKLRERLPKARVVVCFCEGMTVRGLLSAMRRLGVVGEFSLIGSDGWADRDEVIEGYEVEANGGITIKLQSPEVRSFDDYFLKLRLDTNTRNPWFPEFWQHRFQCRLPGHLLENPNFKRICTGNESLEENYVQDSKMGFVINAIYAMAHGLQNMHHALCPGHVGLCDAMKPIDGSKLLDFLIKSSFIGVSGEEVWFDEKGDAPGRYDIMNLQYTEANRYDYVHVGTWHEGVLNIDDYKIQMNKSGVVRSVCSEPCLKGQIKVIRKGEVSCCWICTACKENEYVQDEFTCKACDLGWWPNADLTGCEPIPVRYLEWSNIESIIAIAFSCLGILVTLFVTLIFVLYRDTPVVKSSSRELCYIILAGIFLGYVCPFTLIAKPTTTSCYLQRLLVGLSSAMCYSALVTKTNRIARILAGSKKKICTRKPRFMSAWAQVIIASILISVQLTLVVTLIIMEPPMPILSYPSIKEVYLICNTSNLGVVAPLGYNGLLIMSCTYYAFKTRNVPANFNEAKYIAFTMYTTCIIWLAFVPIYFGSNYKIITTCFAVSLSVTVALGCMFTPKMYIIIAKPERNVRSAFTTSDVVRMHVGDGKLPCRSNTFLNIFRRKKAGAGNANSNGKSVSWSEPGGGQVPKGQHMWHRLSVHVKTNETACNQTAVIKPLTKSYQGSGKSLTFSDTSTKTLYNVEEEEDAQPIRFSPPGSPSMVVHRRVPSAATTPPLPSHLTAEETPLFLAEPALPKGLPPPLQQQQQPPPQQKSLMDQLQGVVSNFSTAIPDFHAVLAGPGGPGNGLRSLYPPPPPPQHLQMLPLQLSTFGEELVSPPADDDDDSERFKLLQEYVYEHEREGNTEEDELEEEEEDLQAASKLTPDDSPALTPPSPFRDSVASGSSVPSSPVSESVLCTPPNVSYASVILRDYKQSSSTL
Method: Incubation is performed for 3 h at 37° C., 5% CO2, saturated with moisture, before changing the medium for 100 μl of DMEM containing glutamax (glutamine not degradable to glutamate) and free of serum. Incubation is performed overnight at 37° C. in an incubator containing 5% CO2, saturated with moisture.
This signal may be either the intensity ratio E665/E620, or the delta F.

mGlu5 receptor = assay: IP1 assay (TR-FRET) on HEK-293 cells expressing the mGlu5 receptor, effect of an inverse agonist; format: cell-based; details: MPEP 5 nM to 100 μM, 1 hour; FIGS. 16A, 16B
Method: Incubation is performed for 1 hour at 37° C., 5% CO2.
When the constitutive activity of the mGluR5 receptor is blocked by the addition of MPEP, that will lead to a decrease in the production of intracellular IP1. […] This signal may be either the intensity ratio E665/E620 or the delta F.

anti-IP1 antibodies = assay: Specificity of the anti-IP1 antibodies evaluated by competition ELISA; format: binding, mouse; details: competition with plate-bound IP1-biotin; competitors 1 nM to 100 μM (myo-inositol 10 nM to 1 mM)
Method: NUNC 96-well microtiter plates coated with streptavidin (13 pmol/well) are used. 100 μl of IP1-biotin conjugate prepared according to Example 9 at a concentration of 0.25 μg/ml are distributed and the mixture is incubated for 2 h 30 min at room temperature with stirring. The mixture is washed three times with water containing 0.1% Tween20. 50 μl of solutions of competitors are added so as to prepare the following final concentration ranges: myo-inositol (10 nM at 1 mM), IP1 Sigma (1 nM to 100 μM), IP2 (1 nM to 100 μM), IP3 (1 nM to 100 μM), PiP2 (1 nM to 100 μM) as well as 50 μl of culture supernatants secreting anti-IP1 antibodies. The mixture is incubated for 16 h at 4° C. and then washed three times with water containing 0.1% Tween20. 100 μl of conjugate anti-IgG (mouse)-peroxidase (Sigma # A 0168) diluted 1/60 000 in PBS 0.3% BSA are added. The mixture is incubated for 1 h at room temperature with stirring and then three washes are performed with 10 PBS 0.1% Tween20. 100 μl of TMB substrate (Sigma # T 8665) are distributed and the mixture is incubated for 30 min at room temperature with stirring and then 100 μl of stop reagent (Sigma # S5814) are distributed and the optical densities are measured at 450 nm.
The optical density at 450 nm is plotted against the logarithm of the concentration of compound whose competition it is desired to test. For all the compounds tested in competition, the maximum optical density OD450˜1.5 is observed at the lowest concentrations (1 nM).

[1] = tested on: anti-IP1 antibody labeled with europium cryptate; assay: HTRF test, specificity of the anti-IP1 antibodies (competition with IP1-CY5); format: binding; details: competition with IP1-CY5 conjugate; FIG. 12
Method: All the solutions are prepared in 100 mM HEPES buffer pH 7 containing 0.1% BSA and 0.4 M KF.NB. 50 μl of solution of competitors are distributed into the wells of a black bottom microtiter plate so as to obtain the following final concentrations: myo-inositol (10 nM to 1 mM), IP1 Sigma (1 nM to 1 mM), IP2 (1 nM to 100 μM), IP3 (1 nM to 100 μM), PiP2 (1 nM to 100 μM). 50 μl of a 10 nM solution of IP1-CY5 conjugate of Example 10, 50 μl of a solution containing 1.5 nM of an anti-IP1 antibody labeled beforehand with europium cryptate are then distributed in the order indicated. Two wells are also distributed in which the 50 μl of competitors are replaced with 50 μl of buffer so as to constitute blanks (negative controls). The mixture is incubated for 2 h at 4° C. and a time-resolved fluorescence measurement is performed (td=50 μs, tg=400 μs) at 620 nm and 665 nm on a Rubystar® apparatus (BMG Labtech). The ΔF values are calculated using the blank values as reference. The percentages of inhibition obtained with the various competitors are then calculated with the delta F values taking, as 100% value, the signal obtained in the presence of an excess of the IP1 competitor.

Molecule: CCOC(=O)NC(=O)C(c1ccccc1)c1ccccc1 [PAM]
- TR-FRET signal (E665/E620 ratio or delta F) as a function of PAM concentration (mGlu1 receptor): the signal will decrease as a function of the PAM concentration

Molecule: Cc1cccc(C#Cc2ccccc2)n1 [MPEP, 2-methyl-6-(phenylethynyl)pyridine]
- TR-FRET signal (E665/E620 ratio or delta F) as a function of inverse agonist concentration (mGlu5 receptor): the signal for the assay will increase as a function of the concentration of inverse agonist

Molecule: phosphatidylinositol 4,5-biphosphate [PIP2]
- decrease in the signal (optical density at 450 nm) caused by the competitor (anti-IP1 antibodies): not recognized by the antibody

Molecule: O[C@H]1[C@H](O)[C@@H](O)[C@H](O)[C@@H](O)[C@H]1O [myo-inositol]
- decrease in the signal (optical density at 450 nm) caused by the competitor (anti-IP1 antibodies): does not cause a decrease in the signal even at concentrations of 1 mM

Molecule: O=P(O)(O)OC1[C@H](O)[C@H](O)C(O)[C@H](O)[C@H]1O (stereo partly drawn) [IP1]
- inhibition of the signal by the competitor (HTRF, delta F) [1]: only the use of IP1 as competitor makes it possible to measure inhibition of the signal
- decrease in the signal (optical density at 450 nm) caused by the competitor (anti-IP1 antibodies): induces a reduction in the signal for concentrations below the micromolar range; also recorded: only the use of IP1 as competitor makes it possible to measure inhibition of the signal
